Laboratory results as given in patent publication US20200121716A1, “Method for Inhibiting Both Glycolysis and Glutamine Metabolism in Cells and Use Thereof” (priority 2017, published 2020).

Tested on: anaerobia
Test: spontaneous anaerobic fermentation of flour paste sealed with rapeseed oil
Assay type: cell-based

O=CO [formic acid]
aqueous solution above the settled flour: clear and transparent

O=C([O-])C(=O)[O-].[Na+].[Na+] [sodium oxalate]
aqueous solution above the settled flour: clear and transparent
